Data published in ChEMBL document CHEMBL4613261, “Metabolic and Pharmaceutical Aspects of Fluorinated Compounds” (J Med Chem, 2020).
Values after ≈ are worked out from the molar mass of the structure shown. Values joined by “and” are separate entries in the source; they are usually repeats but may differ in a detail not shown here. Equal values may be shown once.

Legend:
[1] = Drug metabolism in Sprague-Dawley rat kidney assessed as fluoro-acetic acid metabolite level at 100 mg/kg, po measured after 2 to 8 hrs; assay type: ADME, organism-based; settings: in vivo
[2] = Drug metabolism in Sprague-Dawley rat liver assessed as fluoro-acetic acid metabolite level at 100 mg/kg, po measured after 2 to 8 hrs; assay type: ADME, organism-based; settings: in vivo
[3] = Drug metabolism in Sprague-Dawley rat heart assessed as fluoro-acetic acid metabolite level at 100 mg/kg, po measured after 2 to 8 hrs; assay type: ADME, organism-based; settings: in vivo
[4] = Prodrug conversion in rat brain assessed as total fraction of didanosine formation by HPLC analysis; assay type: ADME, tissue-based; settings: in vivo
[5] = Prodrug conversion in rat blood assessed as total fraction of didanosine formation by HPLC analysis; assay type: ADME, tissue-based
[6] = biological target: T1, Adenosine deaminase (Rattus norvegicus, UniProt Q920P6); assay: Prodrug conversion in rat brain assessed as rate of adenosine deaminase-mediated didanosine formation by HPLC analysis; assay type: ADME, tissue-based; settings: in vivo
T1 sequence (Q920P6 whole entry): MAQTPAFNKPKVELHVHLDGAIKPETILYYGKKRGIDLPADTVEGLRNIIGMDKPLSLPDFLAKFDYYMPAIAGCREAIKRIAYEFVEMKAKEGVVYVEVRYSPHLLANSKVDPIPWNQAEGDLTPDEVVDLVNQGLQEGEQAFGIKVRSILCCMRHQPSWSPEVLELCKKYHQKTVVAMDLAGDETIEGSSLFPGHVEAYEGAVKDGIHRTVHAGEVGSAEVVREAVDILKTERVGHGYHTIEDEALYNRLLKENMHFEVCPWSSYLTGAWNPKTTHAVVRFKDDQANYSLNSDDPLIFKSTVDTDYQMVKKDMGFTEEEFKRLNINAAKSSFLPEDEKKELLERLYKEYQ

[7] = Prodrug conversion in rat brain assessed as rate of didanosine formation by HPLC analysis; assay type: ADME, tissue-based; settings: in vivo
[8] = Apparent half life in rat brain; assay type: ADME, tissue-based
[9] = Prodrug conversion in rat blood assessed as rate of didanosine formation by HPLC analysis; assay type: ADME, tissue-based
[10] = biological target: T1, Adenosine deaminase; assay: Prodrug conversion in rat blood assessed as rate of adenosine deaminase-mediated didanosine formation by HPLC analysis; assay type: ADME, tissue-based
[11] = Apparent half life in rat blood; assay type: ADME, tissue-based
[12] = Solubility of the compound in aqueous buffer at pH 6.5; assay type: physicochemical
[13] = Clearance in human liver microsomes assessed per mg protein; assay type: ADME, Microsome
[14] = biological target: Alanine racemase, biosynthetic (Escherichia coli K-12, UniProt P0A6B4); assay: Substrate activity at Escherichia coli B alanine racemase assessed as partition ratio by measuring ratio of turnover rate to inactivation rate
Sequence of Alanine racemase, biosynthetic (P0A6B4 whole entry): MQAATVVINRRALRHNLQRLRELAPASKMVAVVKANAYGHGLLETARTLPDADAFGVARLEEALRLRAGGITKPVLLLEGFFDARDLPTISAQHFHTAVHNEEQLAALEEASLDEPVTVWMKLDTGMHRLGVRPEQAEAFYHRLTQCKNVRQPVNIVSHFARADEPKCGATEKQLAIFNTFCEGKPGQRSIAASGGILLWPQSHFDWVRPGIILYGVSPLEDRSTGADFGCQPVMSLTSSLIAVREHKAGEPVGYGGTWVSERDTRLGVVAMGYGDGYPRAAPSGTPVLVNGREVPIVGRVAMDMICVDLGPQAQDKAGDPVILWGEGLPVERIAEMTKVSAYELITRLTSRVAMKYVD

[15] = biological target: T2, MGST1 (microsomal glutathione S-transferase 1) (Rattus norvegicus, UniProt P08011); assay: Substrate activity at MGST1 in rat liver microsomes assessed as substrate depletion at 50 uM incubated for 30 mins in presence of GSH by liquid chromatography/mass spectrometry; assay type: ADME; settings: read-out: Activity
T2 sequence (P08011 whole entry): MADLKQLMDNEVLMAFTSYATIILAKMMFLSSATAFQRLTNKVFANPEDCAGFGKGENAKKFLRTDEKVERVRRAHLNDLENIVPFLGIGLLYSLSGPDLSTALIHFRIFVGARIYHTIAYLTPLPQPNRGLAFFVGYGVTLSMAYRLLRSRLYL

[16] = biological target: T3, Lysine decarboxylase (Hafnia alvei, UniProt P05033); assay: Time dependent inhibition of Hafnia alvei lysine decarboxylase using L-lysine by Kitz-Wilson analysis
T3 sequence (P05033 whole entry): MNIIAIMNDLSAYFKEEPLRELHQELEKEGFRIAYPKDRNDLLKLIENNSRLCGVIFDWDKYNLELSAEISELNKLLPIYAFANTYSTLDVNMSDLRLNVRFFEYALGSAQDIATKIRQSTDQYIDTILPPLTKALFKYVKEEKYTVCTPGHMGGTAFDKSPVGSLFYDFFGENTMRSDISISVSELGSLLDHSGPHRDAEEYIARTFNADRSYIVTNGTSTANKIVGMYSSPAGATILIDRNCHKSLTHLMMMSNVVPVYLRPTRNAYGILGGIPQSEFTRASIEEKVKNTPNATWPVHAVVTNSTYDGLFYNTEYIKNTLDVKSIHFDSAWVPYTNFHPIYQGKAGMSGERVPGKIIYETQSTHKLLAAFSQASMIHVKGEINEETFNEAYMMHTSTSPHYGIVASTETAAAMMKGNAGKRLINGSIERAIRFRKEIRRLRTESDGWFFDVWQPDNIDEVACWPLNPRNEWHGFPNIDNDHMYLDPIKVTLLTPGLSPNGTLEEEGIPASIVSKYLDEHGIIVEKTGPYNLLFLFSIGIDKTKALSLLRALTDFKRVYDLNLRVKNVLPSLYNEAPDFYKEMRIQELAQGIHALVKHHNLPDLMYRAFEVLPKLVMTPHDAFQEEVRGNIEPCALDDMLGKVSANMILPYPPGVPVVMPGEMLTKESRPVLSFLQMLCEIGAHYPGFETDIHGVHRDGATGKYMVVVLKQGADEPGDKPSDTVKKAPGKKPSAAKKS

[17] = Protein binding in human plasma
[18] = Aqueous solubility of the compound in pH 6.8 buffer
[19] = Lipophilicity, log P of the compound; settings: octanol/water
[20] = Intrinsic clearance in human liver microsome; assay type: ADME; settings: liver microsomes, read-out: CLH
[21] = biological target: T4, Microsomal glutathione S-transferase 1 (Rattus norvegicus, UniProt P08011); assay: Substrate activity at MGST1 in rat liver microsomes assessed as reactivity rate at 50 uM incubated for 1 to 40 mins in presence of GSH by liquid chromatography/mass spectrometry
T4 sequence (P08011 whole entry): T2 sequence (P08011 whole entry)

[22] = Acute toxicity in rat measured after 4 hrs; settings: in vivo
[23] = Lipophilicity, log P of the compound by C18 reverse phase HPLC; assay type: physicochemical
[24] = Substrate activity at GSTZ (unknown origin) assessed as rate of drug conversion to S-(carboxymethyl)-glutathione per mg of protein; assay type: ADME; settings: human
[25] = Half life in human hepatocytes; assay type: ADME, cell-based, Hepatocyte
[26] = Half life in dog; assay type: ADME, Canis lupus familiaris; settings: in vivo
[27] = Half life in rat; assay type: ADME; settings: in vivo
[28] = Substrate activity at cytochrome p450 in phenobarbital-induced rat liver microsomes assessed as cytochrome p450-mediated-deethoxylation per mg of protein; assay type: ADME
[29] = Drug recovery in rat excreta assessed as metabolically unchanged parent compound at 100 mg/kg, po; assay type: ADME, organism-based; settings: read-out: Drug recovery
[30] = Substrate activity at recombinant human GSTZ1C expressed in Escherichia coli M15 assessed as rate of catalysis per mg of protein; assay type: ADME
[31] = biological target: T5, Maleylacetoacetate isomerase (Rattus norvegicus, UniProt P57113); assay: Substrate activity at GSTZ1 in rat liver cytosol assessed as defluorination activity; assay type: ADME, subcellular
T5 sequence (P57113 whole entry): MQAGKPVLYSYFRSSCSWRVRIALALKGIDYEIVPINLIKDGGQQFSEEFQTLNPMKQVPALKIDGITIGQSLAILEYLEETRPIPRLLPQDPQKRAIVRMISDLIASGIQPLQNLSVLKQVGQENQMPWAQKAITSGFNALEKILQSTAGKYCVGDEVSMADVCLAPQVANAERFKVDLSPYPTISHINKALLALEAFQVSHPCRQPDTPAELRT

[32] = Toxicity in dog; parameters: species or system Canis lupus familiaris; settings: in vivo
[33] = Drug elimination in human; assay type: ADME; settings: read-out: Drug excretion
[34] = biological target: T6, Adenosylhomocysteinase (Rattus norvegicus, UniProt P10760); assay: Reversible inhibition of rat liver S- adenosyl-L-homocysteine hydrolase using SAH as substrate by spectrophotometric method
T6 sequence (P10760 whole entry): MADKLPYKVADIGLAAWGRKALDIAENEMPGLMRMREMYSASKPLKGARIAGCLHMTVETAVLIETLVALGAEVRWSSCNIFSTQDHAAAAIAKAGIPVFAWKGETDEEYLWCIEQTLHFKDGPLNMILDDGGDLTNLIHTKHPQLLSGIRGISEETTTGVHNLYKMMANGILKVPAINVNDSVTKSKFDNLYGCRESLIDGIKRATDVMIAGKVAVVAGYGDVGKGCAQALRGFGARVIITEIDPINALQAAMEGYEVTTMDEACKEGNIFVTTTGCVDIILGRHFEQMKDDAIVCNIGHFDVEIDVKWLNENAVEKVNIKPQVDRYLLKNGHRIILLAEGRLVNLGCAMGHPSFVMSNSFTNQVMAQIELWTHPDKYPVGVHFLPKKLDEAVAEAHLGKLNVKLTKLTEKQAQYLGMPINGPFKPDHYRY

[35] = Toxicity in Wistar rat measured for 6 days; settings: in vivo, 144 h

C[C@H](NC(=O)[C@H](Cc1ccccc1)NC(=O)OCc1ccccc1)C(=O)CF
Drug metabolism [1]: 0.2 to 0.9 µg/g
Drug metabolism [2]: 0.2 to 0.9 µg/g
Drug metabolism [3]: 0.2 to 0.9 µg/g

OC[C@@H]1CC[C@H](n2cnc3c(F)ncnc32)O1
Fm [4]: 1
Fm [5]: 0.54
K [6]: 1.51 min⁻¹
K [7]: 0 min⁻¹
half-life [8]: 0.46 min
K [9]: 0.13 min⁻¹
K [10]: 0.15 min⁻¹
half-life [11]: 3.5 min

OC[C@@H]1CC[C@H](n2cnc3c(Cl)ncnc32)O1
Fm [4]: 1
Fm [5]: 0.28
K [6]: 0.032 min⁻¹
K [7]: 0 min⁻¹
half-life [8]: 19 min
K [9]: 7.4 ×10⁻³ /min
K [10]: 3 ×10⁻³ /min
half-life [11]: 270 min

FCC(F)Cc1c[nH]c2ccccc12 (stereo unspecified)
solubility [12]: > 1720 µM
CLH [13]: 212 min⁻¹ µL⁻¹

N[C@@H](CF)C(=O)O
Ratio [14]: 790

Clc1cccnc1Cl
metabolised at 0.5 h, 50 µM [15]: 26%

N[C@H](C(=O)O)C(F)F
Ratio [14]: 5000

Oc1cccnc1Cl
metabolised at 0.5 h, 50 µM [15]: < 5%

OC[C@@H]1CC[C@H](n2cnc3c(Br)ncnc32)O1
half-life [8]: 20 min
half-life [11]: 280 min

Nc1cccnc1Cl
metabolised at 0.5 h, 50 µM [15]: < 5%

N[C@@H](C(=O)O)C(F)F
Ratio [14]: 2600

C=C(F)[C@](N)(CCCCN)C(=O)O
Ki [16]: 630 µM

O=[N+]([O-])c1cn2c(n1)OC[C@@H](OCc1ccc(SC(F)(F)F)cc1)C2
fraction unbound [17]: 0.4
solubility ([18]; pH 6.8 buffer): 5 µM (≈ 1.88 µg/mL)
logP [19]: 2.7
microsomal CLint [20]: < 25 µL/min/mg

O=[N+]([O-])c1cccnc1Cl
Activity [21]: 236 nmol/min/mg
metabolised at 0.5 h, 50 µM [15]: 100%

OC[C@@H]1CC[C@H](n2cnc3c(I)ncnc32)O1
half-life [8]: 178 min
half-life [11]: 1690 min

FC(F)=C(F)C(F)(F)F
Activity [22]: 3000 ppm

COc1cccnc1Cl
metabolised at 0.5 h, 50 µM [15]: 17%

C=C(F)[C@@](N)(CCCCN)C(=O)O
Ki [16]: 470 µM

FC(F)(F)Oc1ccccc1
logP [23]: 3.35

FC(F)(F)c1cccnc1Cl
metabolised at 0.5 h, 50 µM [15]: 31%

CC(F)(F)Oc1ccccc1
logP [23]: 2.87

Cc1cccnc1Cl
metabolised at 0.5 h, 50 µM [15]: 14%

Nc1nc2ccc(SC(F)(F)F)cc2s1
fraction unbound [17]: 0.24
solubility ([18]; pH 6.8 buffer): 124 µM (≈ 31 µg/mL)
logP [19]: 3.6
microsomal CLint [20]: 40.9 µL/min/mg

CC(Cl)C(=O)O (racemic)
K [24]: 1655 nmol/min

CC(Br)C(=O)O (racemic)
K [24]: 2142 nmol/min

CC(I)C(=O)O (racemic)
K [24]: 2532 nmol/min

NC(C(=O)O)C(F)(F)F (racemic)
Ratio [14]: 10

Clc1ccccn1 [2-CHLOROPYRIDINE]
Activity [21]: < 2 nmol/min/mg

N[C@H]1C[C@@H](C(=O)O)CC1=C(F)F [CPP-115 FREE BASE]
half-life [25]: 1200 min
half-life [26]: 60 to 138 min
half-life [27]: 60 to 138 min

CCOc1ccc2ccc(=O)oc2c1 [ETHOXYCOUMARIN]
Activity [28]: 1.93 nmol/min

N[C@H](CF)C(=O)O [FLUDALANINE]
Ratio [14]: 810

N#Cc1c[nH]cc1-c1cccc2c1OC(F)(F)O2 [FLUDIOXONIL]
dose excreted [29]: 12%

O=C(O)CF [FLUOROACETATE]
K [24]: 172 nmol/min
K [30]: 210 nmol/min
Activity [31]: 3%
LD [32]: 0.05 mg/kg

FC(F)(F)C(Cl)Br (stereo unspecified) [HALOTHANE]
dose excreted [33]: 80%

Nc1ncnc2c1ncn2[C@@H]1C=C(CO)[C@@H](O)[C@H]1O [NEOPLANOCIN A]
Ki [34]: 8.39 nM

CCOc1ccc(NC(C)=O)cc1 [PHENACETIN]
Activity [28]: 3.48 nmol/min

CCOc1ccccc1 [PHENETOLE]
logP [23]: 2.96

O=[N+]([O-])c1cn2c(n1)OC[C@@H](OCc1ccc(OC(F)(F)F)cc1)C2 [PRETOMANID]
PPB [17]: 38%
solubility ([18]; buffer): 8 µM (≈ 2.87 µg/mL)
logP [19]: 2.2
microsomal CLint [20]: < 25 µL/min/mg

Nc1nc2ccc(OC(F)(F)F)cc2s1 [RILUZOLE]
PPB [17]: 85%
microsomal CLint [20]: 38.9 µL/min/mg

FC(F)=C(F)F [TETRAFLUOROETHYLENE]
Activity [22]: 40000 ppm

OCC(F)(F)F [TRIFLUOROETHANOL]
LD50 [35]: 0.44 g/kg and 0.21 g/kg
